Reference: US20240254135A1, “POLYPHENOL COMPOUNDS” (Epirium Bio Inc., priority 2022, published 2024)

Legend:
PGC-1α = test: In vitro PGC-1α expression in differentiated C2C12 cells (cell ELISA); format: cell-based; conditions: 1 mM
Procedure: Culture conditions: DMEM containing 25 mM glucose with 10% FBS supplementation; grown at 37° C. and 5% CO2.
Drugs: (+)Epicatechin, AICAR (direct activator of AMPK).
Assay Conditions: C2C12 cells were cultured in DMEM supplemented in 10% FBS up to 80% confluence. The cells were further trypsinized and seeded into a 96 well plate at a density of 5000 cells/well (well volume—100 μL) (Day 0). Following attachment, the cells were allowed to reach 80-90% confluence in the plate (typically 48 hours post seeding) and further differentiated using DMEM+2% Horse Serum (200 μL/well). The media was changed every day or at least every alternate day for 5 days to allow myoblasts to differentiate into myotubes. On day 7 (post seeding), the cells were treated with standards and test compounds for PGC-1 α assay.
PGC-1α assay: For the detection of PGC-1α, the cells were incubated with 0.5 μg/ml primary antibody (Merck, WH0010891M3) in PBS-T containing 5% BSA at 4° C. overnight. The cells were then washed three times with PBS-T for 5 minutes and incubated with 1:1000 dilution secondary antibody (Anti-rabbit IgG, HRP-linked Antibody, Cell Signaling) in PBS-T with 1% BSA for 1 hour at RT. Cells were washed three times with PBS-T for 5 minutes The cells were incubated with 100 μl TMB substrate solution for 30 minutes and the reaction was stopped with 100 μl of 2N H2SO4. […] (For plate optical density calculations, a background correction was taken at 540 nm). The final PGC-1α activation % is average of activation of 6 replicates.

[1] = biological target: T1, mitochondrial ATP synthase (Mus musculus, UniProt P56480+Q03265); test: ATP synthesis (oxygen consumption, Seahorse XF96) in fresh heart mitochondria; format: biochemical; conditions: fresh heart mitochondria (FIG. 1, FIG. 2)
T1 construct: from tissue; host or cells: mouse heart, isolated mitochondria (fresh or frozen)
Source text: (§1) To assess whether the fraction of synthetic and reverse hydrolytic activities of mitochondrial ATP synthase can be measured in the same preparation, a protocol was developed to monitor changes in oxygen consumption and proton release in response to changes in mitochondrial ATP synthase activity. The proton released and the concomitant changes in the pH can be monitored using the ECAR (extracellular acidification) channel in the Agilent Seahorse XF analyzer using isolated mitochondria, to ensure that the changes in pH cannot be attributed to glycolysis or other contributors to ECAR.
(§2) Mice were anesthetized with isoflurane followed by a cervical dislocation, and the heart was immediately removed and placed in ice cold relaxation buffer (5 mM sodium pyrophosphate, 100 mM KCl, 5 mM EGTA, 5 mM HEPES; pH 7.4). The heart was squeezed with tweezers to remove blood, minced with scissors, and then placed in a glass-glass Dounce homogenizer with 3 mL of HES homogenization buffer (250 mM sucrose, 5 mM HEPES, 1 mM EDTA; pH to 7.2, adjusted with KOH). The heart tissue was homogenized first with the loose pestle and followed by the tight pestle. The homogenized tissue was placed in a pre-chilled 15 ml conical tube and centrifuged at 900×g (4° C.) for 10 minutes (min). The supernatant was removed, placed in a new tube and centrifuged again at 900×g for 10 min. The supernatant was then transferred to 2 mL microcentrifuge tubes and centrifuged at 10,000×g (4° C.) for 10 min. The mitochondrial pellets were re-suspended in ice cold HES buffer and mitochondrial protein was measured with a BCA assay (Pierce). The concentrated mitochondrial pellet was stored on ice.
Heart mitochondria (0.75-1.5 μg) were loaded into a Seahorse XF96 microplate in 20 μL of MAS (70 mM Sucrose, 220 mM Mannitol, 5 mM KH2PO4, 5 mM MgCl2, 1 mM EGTA, 2 mM HEPES; pH 7.2) plus 1% free fatty acid BSA containing substrates. The loaded plate was centrifuged at 2,000×g for 5 min at 4° C. […]
Oxygen consumption was measured in isolated fresh intact mitochondria from mouse heart, as oxygen consumption is linked to maximal ATP synthesis and proton release when mitochondria are respiring either in the presence of substrates and ADP (ATP synthesizing mitochondria or state 3) or in the presence of substrates but not ADP (state 4). […]
OCR and ECAR were measured in a Seahorse XF96 analyzer under basal conditions as well as after injection of 2 μM oligomycin, two sequential additions of 1.5 μM FCCP, followed by 1 μM rotenone with 2 μM antimycin A. Respiratory parameters were calculated according to standard protocols, and all rates were corrected for non-mitochondrial respiration/background signal by subtracting the oxygen consumption rate insensitive to rotenone plus antimycin A.

[2] = biological target: T1, mitochondrial ATP synthase; test: Maximal ATP hydrolysis capacity in frozen heart mitochondria; format: biochemical; conditions: frozen heart mitochondria, different concentrations in the assay media
Procedure: (§3) ATP hydrolysis capacity or state 4 acidification was measured using Seahorse XF96 as described in Divakaruni et al. (2018) Anal Biochem 552:60-65 and Acin-Perez et al. (2021) Life 11(9):949, in MAS (70 mM Sucrose, 220 mM Mannitol, 5 mM KH2PO4, 5 mM MgCl2, 1 mM EGTA, 2 mM HEPES; pH 7.2). Plates were loaded with 0.75-1.5 μg of mouse heart mitochondria, or 25 μg of cell lysate. Cell lysates were prepared by subjecting the samples to 4 cycles of free thaw (liquid nitrogen—37° C. water bath) before measuring protein concentration. When assessing compounds effect on respirometry, the compounds were added in MAS after sample centrifugation. Initial respiration of the samples was sustained by the addition of 5 mM succinate+2 μM rotenone in the MAS after centrifugation. Injections were performed at the following final concentration in the well: Antimycin A (2 μM), oligomycin (5 μM), FCCP (1 μM), ATP (20 mM). To assess maximal ATP concentration, ATP was injected consecutively.
An additional assay was developed to determine the maximal ATP hydrolysis capacity in frozen mitochondria. Maximal ATP hydrolytic capacity was assessed in frozen heart mitochondria where mitochondrial respiration is inhibited by Antimycin A and maximal ATP hydrolysis is driven by co-injection of FCCP and ATP, followed by inhibition in the presence of oligomycin.

[3] = biological target: T1, mitochondrial ATP synthase; test: ATP hydrolysis (proton release/ECAR, Seahorse XF96) in fresh heart mitochondria; format: biochemical; conditions: fresh heart mitochondria (FIG. 1, FIG. 2)
Source text: as §1, §2
Heart mitochondria (0.75-1.5 μg) were loaded into a Seahorse XF96 microplate in 20 μL of MAS (70 mM Sucrose, 220 mM Mannitol, 5 mM KH2PO4, 5 mM MgCl2, 1 mM EGTA, 2 mM HEPES; pH 7.2) plus 1% free fatty acid BSA containing substrates. The loaded plate was centrifuged at 2,000×g for 5 min at 4° C. (no brake) and an additional 130 μL of MAS was added to each well. When assessing compounds effect on respirometry, the compounds were added at this point at the indicated concentration in MAS buffer. To avoid disrupting mitochondrial adherence to the bottom of the plate, MAS was added using a multichannel pipette pointed at a 45° angle to the top of the well-chamber, as instructed by the manufacturer. Substrate concentrations in the well when assay was starting in state 4 were as follow: (i) 5 mM pyruvate+5 mM malate or ii) 5 mM succinate+2 μM rotenone. Substrate concentrations in the well when assay was starting in state 3 were as follow: (i) 5 mM pyruvate+5 mM malate+4 mM ADP or ii) 5 mM succinate+2 μM rotenone+4 mM ADP. Injections were performed as indicated in the figure descriptions at the following final concentration in the well: oligomycin (3.5 μM), FCCP (4 μM), Antimycin A (2 μM). Compounds were added at the indicated concentration.
as §3, with “consecutively. […]” for “consecutively.”

## NC(=O)c1ncn([C@@H]2O[C@H](CO)[C@@H](O)[C@H]2O)c1N [AICAR, 5-aminoimidazole-4-carboxamide-1-β-D-ribofuranoside]
PGC-1α; Table 4, differentiated C2C12 cells, OD at 5 minutes
  % Activity (PGC-1α expression): 128%
PGC-1α; Table 5, differentiated C2C12, 5000 cells/well, DMSO = 100
  % Activity (PGC-1α expression): 122%
PGC-1α; Table 6, C2C12 cells, 5000 cells/well
  % Activity (PGC-1α expression): 136%
PGC-1α; Table 7, C2C12 cells, 5000 cells/well, DMSO = 100
  % Activity (PGC-1α expression): 122%
PGC-1α; Table 8, C2C12 cells, 5000 cells/well, DMSO = 100
  % Activity (PGC-1α expression): 140%

## CC[C@H]1/C=C/C=C/C[C@@H](C)[C@H](O)[C@@](C)(O)C(=O)[C@@H](C)[C@H](O)[C@@H](C)C(=O)[C@@H](C)[C@H](O)[C@@H](C)/C=C/C(=O)O[C@@H]2[C@H](C)[C@H](CC1)O[C@]1(CC[C@H](C)[C@H](C[C@@H](C)O)O1)[C@H]2C [Oligomycin, oligomycin, reference compound]
[1]
  change in ATP synthesis: worked as expected
[2]
  inhibition of ATP hydrolysis: dose dependent inhibition
[3]
  changes in ATP hydrolysis: worked as expected
